{"source": "patent US20260193647A1", "about": "“MIRNA-BASED CANCER THERAPY WITH A TUMOR-NAVIGATING PEPTIDE” (The Board of Trustees of the Universities of Illinois, priority 2022, published 2026)", "key": {"SJ-GBM2 cells": {"system": "SJ-GBM2 cells", "experiment": "cells", "conditions": "Homo sapiens, 24 h, read-out: IC50 (cell viability)", "experimental": "(§1) Cell viability was evaluated by a CCK-8 assay (Dojindo, Japan). Cells were seeded at a density of 4,000 cells per well in 100 μl of growth medium in 96-well plates and grown overnight. Then, the cells were exposed to antisense miR-20a alone, p28 alone or negative control or AmiR20-p28 over a range of concentrations and incubated for 24 hr. According to the manufacturer's instructions, 10 μl of CCK-8 solution was added to each well, followed by incubation for 1 hr at 37° C. The absorbance at 450 nm was determined by a multiplate reader.\n(§2) Cell viability (%)=Abs(sample)−Abs(blank)/Abs(no treatment)−Abs(blank)×100"}, "miR21": {"system": "miR21", "experiment": "miR21 expression by qPCR in treated cells", "assay_type": "cell-based, human"}, "miR-20a": {"system": "miR-20a", "experiment": "miR-20a expression levels by stem loop qPCR in treated cells", "assay_type": "cell-based, human", "conditions": "any of the cell lines tested; administered alone, 10 nM, 24 hr", "from_the_text": "Micro RNA enriched fraction was extracted using the miRNeasy Mini Kit (Qiagen, Catalog #217004) following the manufacturer's instructions. Stem loop real-time qPCR was used to analyze miRNA expression. We designed miR-20a stem loop RT primers and amplification primers according to a previously described method 79. cDNA was synthesized from extracted RNA using unique stem loop RT primers. The sequence of the stem loop primer for miR-20a was 5′-[…]-3′ (SEQ ID NO:7). Reverse transcriptase reactions contained the following reagents: 10 ng of RNA sample, 60 nM stem-loop RT primer, 1×RT buffer, 0.25 mM dNTP, and 4 U/μl reverse transcriptase. Reactions were performed by incubation at 16° C. for 30 min, 42° C. for 30 min and 85° C. for 5 min. Real-time PCR (7300 Real time PCR Systems, Applied Biosystems, CA) was performed using the specific forward primer for miR-20a (5′-[…]-3′ (SEQ ID NO:8)) and a universal reverse primer (5′-GTGCA GGGTC CGAGGT-3′ (SEQ ID NO:9)). The 20-μl PCR mixture included 1×SYBR Premix (Invitrogen), 2 μl of RT products and each forward and reverse primer at 10 nM. Reactions were performed by incubation in a 96-well plate at 95° C. for 30 sec, followed by 35 cycles of 95° C. for 30 sec and 60° C. for 30 sec. U6 was used as an internal control to normalize the level of target miRNAs. The results were verified by performing PCR using M13 modified forward and reverse primers specific to stem loop sequence. The PCR products were visualized in 2% agarose gels and DNA-sequence was confirmed. Human tumor and serum samples were obtained from patients who had signed informed consent and the institutional review board approval was obtained in Pediatric Brain Tumor Consortium (PBTC-041) participating sites."}, "[1]": {"system": "SJ-GBM2, CHLA-200, LN-229 and astrocytes", "experiment": "CCK-8 cell viability assay, set of cell lines tested", "assay_type": "cell-based, human", "conditions": "component alone; 24 hr", "experimental": "as §1, §2"}, "[2]": {"system": "SJ-GBM2 cells, CHLA-200 cells and astrocytes", "experiment": "Cellular entry by confocal microscopy", "assay_type": "cell-based, human", "conditions": "20 μM Alexa Fluor labeled, 2 hr, 37° C.; pGBM cells vs normal astrocytes", "procedure": "p28 or AmiR20-p28 were dissolved in PBS mixed with Alexa Fluor 568 dye (Invitrogen) at a 1:2 peptide/dye ratio 37. Sodium bicarbonate (pH 8.5) was added and incubated at 4° C. with continuous stirring. Alexa Fluor 568 labeled p28 and AmiR20-p28 were dialyzed against cold-PBS using Slide-A-Lyzer Dialysis Cassettes (Pierce Biotechnology). Similarly, p28 was labeled with ICG as described previously.\nSJ-GBM2 cells, CHLA-200 cells and astrocytes (2×10^4 cells/well) were cultured on glass slides placed in 24-well plates. After overnight culture, the cells were washed with PBS and incubated with 20 μM Alexa Fluor 568-labeled p28 peptide in medium (5% FBS and without phenol red) for 2 hr at 37° C. Cells were fixed with 2% formalin for 10 min. After washing, slides were prepared and mounted with Vectashield with DAPI (Vector Laboratories, Catalog #94010). Slides were examined by an LSM 710 confocal laser scanning microscope (Zeiss). Images were processed using ZEN software (ZEISS ZEN Lite). As for a GSC marker, the slides were first incubated with Alexa Fluor 568-labeled AmiR20-p28 for 2 hr at 37° C. Cells were fixed with 2% formalin for 10 min. After washing, slides were incubated with blocking buffer for 1 hr at room temperature, followed by consecutive staining with anti-CD133 antibody (1:500, R&D Systems FAB11331G). Slides were washed and mounted with Vectashield containing DAPI. […]"}, "[3]": {"conditions": "human, in vivo; cited from earlier work"}}, "note": "Ends that are not written are not given here.", "data": [{"molecule": "Cn1nnc2c(C(N)=O)ncn2c1=O", "note": "[TMZ, temozolomide]", "values": [{"measurement": "IC50", "setting": "SJ-GBM2 cells", "value": "~600", "unit": "µM"}]}, {"molecule": "AmiR21-p28: cell-penetrating peptide p28 chemically conjugated to antisense-miR21 (LSTAADMQGVVTDGMASGLDKDYLKPDD; also: chemically conjugated to antisense miR-21, site not given here; UniProt P00282 70-97, looked up, fragment)", "values": [{"measurement": "endogenous miR21", "setting": "miR21; pGBM and aGBM cells, Ten nM", "value": "significantly reduced the endogenous miR21"}]}, {"molecule": "p28: CPP derived from Pseudomonas aeruginosa azurin that preferentially enters cancer cells; carrier component tested alone [reference compound]", "values": [{"measurement": "inhibitory effect on miR-20a expression", "setting": "miR-20a", "value": "did not have a significant inhibitory effect"}, {"measurement": "inhibitory effect on cell viability", "setting": "[1]", "value": "neither p28 nor AmiR20, alone had an inhibitory effect on cell viability"}, {"measurement": "cellular entry (confocal images)", "setting": "[2]", "value": "preferentially penetrated"}, {"measurement": "reduction of miR21", "setting": "miR21; any cell lines tested, component alone", "value": "did not induce a significant reduction of miR21"}, {"measurement": "tolerability in patients", "setting": "[3]", "value": "well tolerated without apparent adverse effects, toxicity, or immunogenicity"}]}]}
